{"source": "patent US20060128643A1", "about": "“Compositions containing a combination of a creatine compound and a second agent” (The General Hospital Corporation, priority 1998, published 2006)", "key": {"creatine kinase": {"molecular_target": "creatine kinase (Oryctolagus cuniculus, UniProt P00563)", "sequence (P00563 whole entry)": "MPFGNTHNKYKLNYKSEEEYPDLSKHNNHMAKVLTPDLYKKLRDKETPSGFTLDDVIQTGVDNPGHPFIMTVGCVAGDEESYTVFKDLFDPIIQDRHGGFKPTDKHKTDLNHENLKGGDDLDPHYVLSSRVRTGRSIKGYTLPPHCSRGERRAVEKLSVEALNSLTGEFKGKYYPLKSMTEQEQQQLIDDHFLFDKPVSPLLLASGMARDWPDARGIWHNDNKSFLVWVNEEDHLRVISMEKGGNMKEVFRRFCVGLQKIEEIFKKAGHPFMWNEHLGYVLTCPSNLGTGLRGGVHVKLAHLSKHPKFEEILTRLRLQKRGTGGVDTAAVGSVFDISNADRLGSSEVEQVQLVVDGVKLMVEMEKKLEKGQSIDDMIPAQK", "conditions": "cited from earlier work"}, "[1]": {"conditions": "intravenous injection, up to 8 grams/day, patients with cardiac diseases; cited from earlier work"}, "[2]": {"tested_on": "malonate striatal lesions", "conditions": "cited from earlier work; for protection against lesions in the malonate animal model: in vivo"}, "[3]": {"tested_on": "MPTP neurotoxicity (dopamine depletion)", "conditions": "animal model of Parkinson's disease; cited from earlier work"}, "[4]": {"tested_on": "malonate lesions (striatal)", "assay": "Malonate striatal lesions, creatine and nicotinamide (Example 4)", "assay_type": "in vivo, male Sprague-Dawley rats", "conditions": "creatine 1% in the diet, nicotinamide 0.5% in the drinking water; malonate 3 μmol intrastriatal", "procedure": "Studies of the neuroprotective effects of creatine and nicotinamide were carried out in 250 to 300 g male Sprague-Dawley rats. Creatine was administered orally to rats in their feed at a dose of 1% in the diet. Nicotinamide was administered orally with apple juice at a dose of 0.5% in the drinking water. Rats were treated for one week prior to intracerebral injectior˜s. Animals then remained on the control or supplemented diets for one week prior to being sacrificed. Eleven to 12 animals were examined in each experimental group. NMDA was administered at a doge of 240 nmol in 1 μl. AMPA was administered at a dose of 30 nmol in 1 μl and kainic acid was administered at dose of 5 nmol in 1 μl. Malonate was dissolved in distilled deionized water and the pH was adjusted to 7.4 with HCl. Intrastriatal injections of 3 μmol of malonate in 1.5 μl were made with a 10 μl Hamiiton syringe fitted with a 26 gauge blunt tip needle, into the left striatum at the level of the bregma, 2.4 mm lateral to the midline and 4.5 mm ventral to the dura as described previously [Matthews, R. T et al. J. Neurosci., 18 (1998) 156-163]. […] Lesions noted by pale staining were evaluated on the posterior surface of each section using a Bioquant 4 system, which calculates the volume of the lesions in each section, by an experienced histologist blinded to experimental conditions. […]"}, "MPTP toxicity": {"tested_on": "MPTP toxicity", "conditions": "mice; cited from earlier work"}, "[5]": {"conditions": "cited from earlier work"}, "[6]": {"tested_on": "MPTP induced dopaminergic toxicity", "assay": "MPTP model for Parkinson's disease: striatal dopamine, DOPAC, HVA", "assay_type": "in vivo, male Swiss Webster mice", "procedure": "The effect of two representative creatine compounds, creatine and cyclocreatine, were evaluated using this model. Creatine and cyclocreatine were administered in the initial pilot experiment as 1% formulation in the feed of animals, and was administered for three weeks before MPTP treatment. MPTP was administered intraperitoneally at a dose of 15 mg/kg every 2 hours for five injections. The animals then remained on either creatine or cyclocreatine supplemented diets for 1 week before sacrifice. The mice examined were male Swiss Webster mice weighing 30-35 grams obtained from Taconic Farms. Control groups received either normal saline or MPTP hydrochloride alone. MPTP was administered in 0.1 ml of water. The MPTP was obtained from Research Biochemicals. Eight to twelve animals were examined in each group. Following sacrifice the two striata were rapidly dissected and placed in chilled 0.1 M perchloric acid. Tissue was subsequently sonicated, and aliquots were taken for protein quantification using a fluorometer assay. Dopamine, 3,4-dihydroxyphenylacetic acid (DOPAC), and homovanillic acid (HVA) were quantified by HPLC with 16 electrode electrochemical detection. Concentrations of dopamine and metabolites were expressed as nmol/mg protein. The statistical significance of differences was determined by one-way ANOVA followed by Fisher PLSDpost-hoc test to compare group means.\nA dose response study was conducted where the creatine dose was 0.25%-3.0% of the diet and cyclocreatine 0.25-1.0% of the diet."}, "[7]": {"conditions": "rats receiving dietary 1% cyclocreatine; cited from earlier work"}, "[8]": {"tested_on": "malonate induced striatal lesions", "assay": "Malonate model of Huntington's disease: striatal lesion volume (Example 1)", "assay_type": "in vivo, rats", "procedure": "Oral administration of creatine and its analogue cyclocreatine were examined to determine their ability to attenuate malonate lesions. Creatine was administered orally to rats in their feed at doses of 0.25-3.0% of the diet. Cyclocreatine was administered at 0.2-1.0%. Controls received unsupplemented otherwise identical diets. The compounds were administered for two weeks prior to the administration of malonate and then for a further week prior to sacrifice. Malonate was dissolved in distilled deionized water and the pH wad adjusted to 7.4 with 0.1 m HCl. Intrastriatal injections of 1.5 ul of malonate containing 3 μmol were made into the striatum at the level of the bregma 2.4 mm lateral to the midline and 4.5 mm ventral to the dura. Animals were sacrificed at 7 days by decapitation, and the brains were quickly removed and placed in ice cold 0.9% saline solution. Brains were sectioned at 2 mm intervals. Slices were then placed posterior side down in 2% 2,3,5-triphenyltetrazolium chloride. Slices were stained in the dark at room temperature for 30 minutes and then removed and placed in 4% paraformaldehyde, pH 7.3. Lesions, noted by pale staining, were evaluated on the posterior surface of each section using a Bioquant 4 system by an experienced histologist blinded to experimental conditions. These measurements have been validated by comparing them to measurements obtained on adjacent Nissl stain sections."}, "[9]": {"conditions": "up to 1% of diet for 2 weeks or for over 4 weeks; cited from earlier work"}, "[10]": {"conditions": "feeding animals, e.g. 1% dietary; cited from earlier work"}, "[11]": {"conditions": "cited from earlier work", "remark": "listed apart in the source"}, "[12]": {"conditions": "dose response study, 0.5% of the diet"}}, "data": [{"molecule": "N=C(N)N(CC(=O)O)CC1CO1", "note": "(centres unmarked) [epoxycreatine]", "values": [{"measurement": "inactivation of creatine kinase", "setting": "creatine kinase", "result": "completely and irreversibly inactivate"}]}, {"molecule": "N-phosphoryl creatine [creatine phosphate]", "values": [{"measurement": "adverse side effects", "setting": "[1]", "result": "no adverse side effects"}]}, {"molecule": "isoepoxycreatine", "values": [{"measurement": "inactivation of creatine kinase", "setting": "creatine kinase", "result": "completely and irreversibly inactivate"}]}, {"molecule": "NC(=O)c1cccnc1", "note": "[nicotinamide]", "values": [{"measurement": "ATP depletion produced by malonate in vivo", "setting": "[2]", "result": "attenuated ATP depletion"}, {"measurement": "protection against lesions in the malonate animal model", "setting": "[2]", "result": "dose dependent protection"}, {"measurement": "protection against dopamine depletion", "setting": "[3]", "result": "effective in inhibiting moderate dopamine depletion"}, {"measurement": "neuroprotective effect against malonate lesions (striatal lesion volume)", "setting": "[4]", "result": "did not reach significance"}]}, {"molecule": "COC1=C(OC)C(=O)C(C/C=C(\\C)CC/C=C(\\C)CC/C=C(\\C)CC/C=C(\\C)CC/C=C(\\C)CC/C=C(\\C)CC/C=C(\\C)CC/C=C(\\C)CC/C=C(\\C)CCC=C(C)C)=C(C)C1=O", "note": "[CoQ10, 2,3 dimethoxy-5 methyl-6-decaprenyl benzoquinone]", "values": [{"measurement": "ATP depletion produced by malonate in vivo", "setting": "[2]", "result": "attenuated ATP depletion"}, {"measurement": "protection against lesions in the malonate animal model", "setting": "[2]", "result": "dose dependent protection"}, {"measurement": "protection against MPTP toxicity", "setting": "MPTP toxicity", "result": "significantly protect"}, {"measurement": "solubility in chloroform and carbon tetrachloride", "setting": "[5]", "result": "very soluble"}, {"measurement": "solubility in water", "setting": "[5]", "result": "insoluble in water"}]}, {"molecule": "CC(C)(C)[N+]([O-])=Cc1ccccc1S(=O)(=O)O", "note": "[N-tert-a-(2-sulfophenyl) nitrone, reference compound]", "values": [{"measurement": "protection against dopamine depletion", "setting": "[3]", "result": "effective in inhibiting moderate dopamine depletion"}]}, {"molecule": "NC1=NCCN1CC(=O)O", "note": "[cyclocreatine, 1-carboxymethyl-2-iminoimidazolidine]", "values": [{"measurement": "effect against MPTP induced depletions of homovanillic acid", "setting": "[6]; 1% in feed, pilot experiment", "result": "effective"}, {"measurement": "neuroprotection against MPTP induced dopamine depletions", "setting": "[6]; 1% in feed, pilot experiment", "result": "significant neuroprotection"}, {"measurement": "neuroprotective effect compared with creatine", "setting": "[6]; 1% in feed, pilot experiment", "result": "greater than that seen with creatine alone"}, {"measurement": "protection against DOPAC depletions induced by MPTP", "setting": "[6]; 1% in feed, pilot experiment, MPTP 15 mg/kg i.p. x5", "result": "significantly protected"}, {"measurement": "effects on the dopamine metabolites HVA and DOPAC", "setting": "[6]; dose response study (creatine 0.25%-3.0%; cyclocreatine 0.25-1.0% of the diet)", "result": "neuroprotection effects"}, {"measurement": "neuroprotection against MPTP induced dopamine depletions", "setting": "[6]; [12]", "result": "significant protection"}, {"measurement": "protection against HVA depletion", "setting": "[6]; [12]", "result": "not seen"}, {"measurement": "neuroprotection against MPTP induced dopamine depletions", "setting": "[6]; dose response study, 1.0% of the diet", "result": "significant protection"}, {"measurement": "tissue uptake", "setting": "[7]", "result": "taken up by muscle, heart and brain"}, {"measurement": "neuroprotection against malonate induced striatal lesions", "setting": "[8]; 1% in the diet", "result": "significant"}, {"measurement": "neuroprotection against malonate induced striatal lesions, dose response", "setting": "[8]; increasing doses in the diet (creatine 0.25-3%; cyclocreatine 0.2-1.0%)", "result": "dose dependent neuroprotective effects"}, {"measurement": "protection against striatal malonate lesions", "setting": "[8]; oral supplementation in feed, 2 weeks before and 1 week after intrastriatal malonate 3 μmol", "result": "protected against striatal malonate lesions"}, {"measurement": "gross adverse effects", "setting": "[9]", "result": "without gross adverse effects"}, {"measurement": "accumulation in organs", "setting": "[10]", "result": "accumulation of cyclocreatine in different organs in mM concentrations"}, {"measurement": "mortality", "setting": "[11]; diet containing 1% cyclocreatine, in the presence of antibiotics", "result": "without significant mortality"}, {"measurement": "growth versus control chicks", "setting": "[11]; in vivo", "result": "grew more slowly"}]}]}
